The values that follow are results of earlier work, collected in patent US8992977B2, “Multi-day delivery of biologically active substances” (Samos Pharmaceuticals, LLC, priority 2007, dated 2015).

Read-outs that look alike come from different tables or passages of the source.

For data set [1] the following is noted: cited from earlier work; for t1/2: carrier drug, as repeated in the examples.
The conditions of data set [2]: cited from earlier work.
For data set [3] the following is noted: carotenoids; J. of Nutrition 2001, 131, 2096; cited from earlier work.
Setting [4] is: The Pharmacological Basis of Therapeutics 10th ed., Physicians Desk Reference 58th Ed.
[5] abbreviates: Table 1, alcohol moiety, 60% acetone, temperature 1.
[6] abbreviates: Table 1, alcohol moiety, 70% acetone, temperature 24.7.
Where [7] appears, read: Table 2, acid moiety, 70% acetone, temperature 24.7.
[8] abbreviates: Table 2, acid moiety, water, temperature 24.7.
The mark [9] stands for this setting: Table 1, alcohol moiety, 60% acetone, temperature 25.

`CO[C@H]1C[C@@H]2CC[C@@H](C)[C@@](O)(O2)C(=O)C(=O)N2CCCC[C@H]2C(=O)O[C@H]([C@H](C)C[C@@H]2CC[C@@H](O)[C@H](OC)C2)CC(=O)[C@H](C)/C=C(\C)[C@@H](O)[C@@H](OC)C(=O)[C@H](C)C[C@H](C)/C=C/C=C/C=C/1C` [Sirolimus]: the half life in data set [1] (setting [4]) was 62 h. For the same compound, the t1/2 in data set [1] is given as 62 h.
For the compound `CC(=O)Oc1cccc(C)c1`, in data set [2] (setting [5]), the kOH is 0.09 M⁻¹ s⁻¹.
With `COc1ccc2cc(CCC(C)=O)ccc2c1` [Nabumetone], in data set [1] (setting [4]), the half life is 23 h.
For `CC1=C(/C=C/C(C)=C/C=C/C(C)=C/C=C/C=C(C)/C=C/C=C(C)/C=C/C2=C(C)C[C@@H](O)CC2(C)C)C(C)(C)CCC1` [beta cryptoxanthin], the half life in data set [3] is 936 h.
Consider `CCOC(C)=O` [CH3COOC2H5], for which the kOH in data set [2] (setting [6]) and in data set [2] (setting [7]) was 0.047 M⁻¹ s⁻¹ each time.
Consider `OC(c1cc(C(F)(F)F)nc2c(C(F)(F)F)cccc12)C1CCCCN1` (stereo not drawn) [Mefloquine], for which the half life in data set [1] (setting [4]) is 480 ± 96 h.
Regarding `COC(C)=O` [CH3COOCH3], in data set [2] (setting [6]), the kOH is 0.108 M⁻¹ s⁻¹.
Regarding Ivermectin, the half life in data set [1] (setting [4]) is 57 h.
With `CC(=O)OC[C@H]1O[C@@H]([S-])[C@H](OC(C)=O)[C@@H](OC(C)=O)[C@@H]1OC(C)=O.CCP(CC)CC.[Au+]` [Auranofin], the half life in data set [1] (in vivo) is 408 to 600 h.
As for `CCN(CCO)CCCC(C)Nc1ccnc2cc(Cl)ccc12` (stereo not drawn) [Hydroxychloroquine], the half life in data set [1] (setting [4]) was 1220 h.
As to `CNCCCC1c2ccccc2C=Cc2ccccc21` [Protriptyline], the half life in data set [1] (setting [4]) was 78 h. In addition, the t1/2 in data set [1] was 76 h.
With `CCOC(=O)CSC` [CH3SCH2COOC2H5], the kOH in data set [2] (setting [8]) was 0.92 M⁻¹ s⁻¹.
As for `CC(=O)Oc1ccc([N+](=O)[O-])cc1`, the kOH in data set [2] (setting [5]) is 2.2 M⁻¹ s⁻¹.
With `CNCCC=C1c2ccccc2CCc2ccccc21` [Nortriptyline], in data set [1] (setting [4]), the half life was 31 h.
`CC(=O)OCc1ccc([N+](=O)[O-])cc1`: in data set [2] (setting [9]), the kOH is 0.269 M⁻¹ s⁻¹.
Consider `CCOC(=O)C(C)(C)C` [(CH3)3CCOOC2H5], for which, in data set [2] (setting [7]), the kOH is 0.00022 M⁻¹ s⁻¹.
In the case of `CCOC(=O)C(CC)CC` [(C2H5)2CHCOOC2H5], the kOH in data set [2] (setting [7]) was 0.000083 M⁻¹ s⁻¹.
In the case of `CCOC(=O)C[S+](C)[O-]` (stereo not drawn) [CH3SOCH2COOC2H5], the kOH in data set [2] (setting [8]) is 4.20 M⁻¹ s⁻¹.
With `CC(=O)OC(C)(C)C` [CH3COOC(CH3)3], the kOH in data set [2] (setting [6]) is 0.00027 M⁻¹ s⁻¹.
For the compound `CCOC(=O)C[N+](C)(C)C` [(CH3)3N^+CH2COOC2H5], the kOH in data set [2] (setting [8]) is 98.0 M⁻¹ s⁻¹.
As to `CCCC(=O)OCC` [nC3H7COOC2H5], in data set [2] (setting [7]), the kOH is 0.088 M⁻¹ s⁻¹.
`CC(=O)Oc1ccccc1` [CH3COOC6H5]: the kOH in data set [2] (setting [9]) was 0.537 M⁻¹ s⁻¹.
On to `CN(C)CCOc1ccc(/C(=C(/CCCl)c2ccccc2)c2ccccc2)cc1` [Toremifene], for which, in data set [1] (setting [4]), the half life is 148 h.
For the compound Gold sodium thiomalate, the half life in data set [1] (setting [4]) was 600 h.
For `O=c1[nH]c2ccccc2n1C1CCN(CCCC(c2ccc(F)cc2)c2ccc(F)cc2)CC1` [Pimozide], in data set [1] (setting [4]), the half life was 111 h.
On to `CCOC(=O)CCl` [ClCH2COOC2H5], for which, in data set [2] (Table 2, acid moiety, Water, μ = 0.2, temperature 24.7), the kOH is 33.2 M⁻¹ s⁻¹.
Regarding `CCC1(c2ccccc2)C(=O)NC(=O)NC1=O` [Phenobarbital], the half life in data set [1] (setting [4]) was 99 h.
Regarding Infliximab, the half life in data set [1] (in vivo) is 228 h.
For `CC(=O)OC(C)C` [CH3COOCH(CH3)2], the kOH in data set [2] (setting [6]) was 0.007 M⁻¹ s⁻¹.
Turning to `CNCCC(Oc1ccc(C(F)(F)F)cc1)c1ccccc1` (stereo not drawn) [Fluoxetine], in data set [1] (setting [4]), the half life was 53 h. Also, the t1/2 in data set [1] is listed as 53 h.
Regarding `CCCOC(C)=O` [CH3COO(CH2)2CH3], the kOH in data set [2] (setting [6]) is 0.027 M⁻¹ s⁻¹.
As to `CCOC(=O)CN` [H3N^+CH2COOC2H5], the kOH in data set [2] (setting [8]) was 60.5 M⁻¹ s⁻¹.
